Data as given in patent US20210269483A1, “PEPTIDE COMPOUNDS” (ULTUPHARMA AB, priority 2018, published 2021).
Values after ≈ are worked out from the molar mass of the structure shown. Read-outs that look alike come from different tables or passages of the source. Starred links: 1 amine or outer side, 2 acyl side, 3 side chain; linkers in the order of their positions; H or OH if unused. Positions of bridges follow the written chain, without caps; N, C: chain ends. Non-standard residues stand in square brackets, D forms with d. Residues, ends and D or L forms follow the SMILES beside them. X3 = CC(C)CCCCCCC[C@H](CC(=O)[*:1])O[*:2]; X4 = CCCCCCC=CC[C@H](CC(=O)[*:1])O[*:2]; Val(3-OH) = CC(C)(O)[C@H](N)C(=O)O; X1 = C/C=C(/N[*:1])C(=O)[*:2]; Dab = NCC[C@H](N)C(=O)O; Dap = NC[C@H](N)C(=O)O

Experiments:
A. baumannii = format: cell-based, Acinetobacter baumannii
Text: (§1) 2015. M7-A10. Methods for dilution antimicrobial susceptibility tests for bacteria that grow aerobically, 10th ed. Approved standard. CLSI, Wayne, Pa.).
(§2) A) In the broth micro-dilution method, the test media were either AM3 Broth (BD Difco Ltd) mixed with phosphate buffered saline (PBS, Amresco LLC, Solon, USA) in 1:4 ratio (E. colt A. baumannii, Enterobacter cloacae, Klebsiella pneumonia and P. aeruginosa), AM3 Broth mixed with PBS in 1:1 ratio (S. aureus) or Malt Extract (ME; 15 g Malt Extract Dico Ltd. in 1000 mL deionized H2O; Aspergillus fumigatus). Prior to MIC-tests, the bacterial cell concentration/fungal spore concentration was adjusted to between 1 and 5×10^5 cells/spores per mL. […] Afterwards, suspensions of pathogen cells in the appropriate medium were dispensed to the wells of microtiter plates and the growth of pathogens were monitored after 16 to 20 h of incubation at 37° C. in the dark. Positive control comprised respective pathogen cells suspended in untreated sterile appropriate media without addition of compounds(s) and negative control comprised the medium only. The MIC was defined as the lowest concentration of each compound with no visible growth of pathogen. All MIC tests were performed in duplicate and/or triplicate and repeated at least twice.

E. cloacae = format: cell-based, Enterobacter cloacae
Text: as §1, §2

E. coli = format: cell-based, Escherichia coli
Text: as §1, §2

K. pneumoniae = format: cell-based, Klebsiella pneumonia
Text: as §1, §2

P. aeruginosa = format: cell-based, Pseudomonas aeruginosa
Text: as §1, §2

S. aureus = format: cell-based, Staphylococcus aureus
Text: as §1, §2

HepG2 = test system: HepG2
Description: IC50, haemolysis rate and frequency of resistance (FoR, Table 4) was determined using standard protocols by different CROs.

[1] = method A, only lower limit of concentration range shown ("16" means "16-32")

Row | Compound | MIC A. baumannii LMG1041T (A. baumannii; [1]) [µg/mL] | MIC E. cloacae LMG2783T (E. cloacae; [1]) [µg/mL] | MIC E. coli LMG15862 (E. coli; [1]) [µg/mL] | MIC K. pneumonia LMG20218 (K. pneumoniae; [1]) [µg/mL] | MIC P. aeruginosa LMG6395 (P. aeruginosa; [1]) [µg/mL] | MIC S. aureus LMG15975 (S. aureus; [1]) [µg/mL] | IC50 (HepG2) (HepG2; HepG2, determined by a CRO) [µg/mL] | MIC A. baumannii LMG1041T (A. baumannii) [µg/mL] | MIC E. cloacae LMG2783T (E. cloacae) [µg/mL] | MIC E. coli LMG15862 (E. coli) [µg/mL] | MIC K. pneumonia LMG20218 (K. pneumoniae) [µg/mL] | MIC P. aeruginosa LMG6395 (P. aeruginosa) [µg/mL] | MIC S. aureus LMG15975 (S. aureus) [µg/mL] | IC50 (HepG2) (HepG2) [µg/mL]
1 | Table 2 cyclic lipodepsipeptide: R C10H21; Asn-Leu-DABA-ABA-Thr-DAPA-Phe-Val-Asp [U842] | 8 | >32 | 16 | >32 | 16 | 8 | 22 | – | – | – | – | – | – | –
2 | Table 2 cyclic lipodepsipeptide: R C10H21; DAPA-Leu-DABA-ABA-Thr-DAPA-Phe-Val-Asp [U800] | 8 | 8 | 8 | >32 | 16 | 16 | 12 | – | – | – | – | – | – | –
3 | Table 2 cyclic lipodepsipeptide: R C8H17; DAPA-Leu-DABA-ABA-Thr-DAPA-Phe-OHVal-Asp [U755b] | 2 | 2 | 8 | 8 | 4 | 16 | 34 | – | – | – | – | – | – | –
4 | Table 2 cyclic lipodepsipeptide: R C7H15; DAPA-Leu-DABA-ABA-Thr-DAPA-Phe-OHVal-Asp [U744] | 16 | 16 | 16 | 8 | 16 | >32 | 72 | – | – | – | – | – | – | –
5 | C/C=C1/NC(=O)[C@H](CCN)NC(=O)[C@H](CC(C)C)NC(=O)[C@H](CN)NC(=O)C[C@@H](CCCCCCCC(C)C)OC(=O)[C@H](CC(=O)O)NC(=O)[C@H](C(C)C)NC(=O)[C@@H](Cc2ccccc2)NC(=O)[C@H](CN)NC(=O)[C@H]([C@@H](C)O)NC1=O [U793, cyclo-((R)-3-hydroxy-11-methyldodecanoyl-L-DAPA-L-Leu-L-DABA-ABA-L-Thr-L-DAPA-D-Phe-L-Val-L-Asp)] ([Dap]L[Dab][X1]T[Dap][dF]VD; linker N-C via X3) | – | – | – | – | – | – | – | 4 (≈ 3.5 µM) | 16 (≈ 14 µM) | 4 (≈ 3.5 µM) | >32 | 8 (≈ 7 µM) | >32 | 9 (≈ 7.87 µM)
6 | C/C=C1/NC(=O)[C@H](CCN)NC(=O)[C@H](CC(C)C)NC(=O)[C@H](CN)NC(=O)C[C@@H](CCCCCCCC(C)C)OC(=O)[C@H](CC(=O)O)NC(=O)[C@H](C(C)(C)O)NC(=O)[C@@H](Cc2ccccc2)NC(=O)[C@H](CN)NC(=O)[C@H]([C@@H](C)O)NC1=O [U773, cyclo-((R)-3-hydroxy-11-methyldodecanoyl-L-DAPA-L-Leu-L-DABA-ABA-L-Thr-L-DAPA-D-Phe-L-OHVal-L-Asp)] ([Dap]L[Dab][X1]T[Dap][dF][Val(3-OH)]D; linker N-C via X3) | – | – | – | – | – | – | – | 4 (≈ 3.45 µM) | 8 (≈ 6.9 µM) | 2 (≈ 1.73 µM) | 16 (≈ 13.8 µM) | 8 (≈ 6.9 µM) | 16 (≈ 13.8 µM) | 8 (≈ 6.9 µM)
7 | Table 2 cyclic lipodepsipeptide: R C8H17; DAPA-Leu-DABA-ABA-Thr-DAPA-Phe-OHVal-Asp [U755a] | 8 | 8 | 8 | 8 | 8 | 16 | 39 | – | – | – | – | – | – | –
8 | Table 2 cyclic lipodepsipeptide: R C9H17; DAPA-Leu-DABA-ABA-Thr-DAPA-Phe-OHVal-Asp [U757] | 4 | 8 | 8 | 8 | 8 | 16 | 28 | – | – | – | – | – | – | –
9 | Table 2 cyclic lipodepsipeptide: R C9H17; DAPA-Leu-DABA-ABA-Thr-DAPA-Phe-Val-Asp [U775] | 8 | 4 | 4 | 16 | 4 | 16 | 9 | – | – | – | – | – | – | –
10 | C/C=C1/NC(=O)[C@H](CCN)NC(=O)[C@H](CC(C)C)NC(=O)[C@H](CN)NC(=O)C[C@@H](CC=CCCCCCC)OC(=O)[C@H](CC(=O)O)NC(=O)[C@H](C(C)(C)O)NC(=O)[C@@H](Cc2ccccc2)NC(=O)[C@H](CN)NC(=O)[C@H]([C@@H](C)O)NC1=O [U756, cyclo-((R)-3-hydroxydodec-5-enoyl-L-DAPA-L-Leu-L-DABA-ABA-L-Thr-L-DAPA-D-Phe-L-OHVal-L-Asp)] ([Dap]L[Dab][X1]T[Dap][dF][Val(3-OH)]D; linker N-C via X4) | – | – | – | – | – | – | – | 1 (≈ 0.875 µM) | 2 (≈ 1.75 µM) | 1 (≈ 0.875 µM) | 2 (≈ 1.75 µM) | 4 (≈ 3.5 µM) | 4 (≈ 3.5 µM) | –
11 | Table 2 cyclic lipodepsipeptide: R C9H17; DAPA-Leu-DABA-ABA-Thr-Asn-Phe-Val-Asp [U826] | 8 | 16 | 8 | >32 | 16 | 16 | 23 | – | – | – | – | – | – | –
12 | Table 2 cyclic lipodepsipeptide: R C8H17; DAPA-Leu-DABA-ABA-Thr-DAPA-Phe-OHVal-Asp [U754] | 2 | 4 | 4 | 4 | 8 | 8 | 20 | – | – | – | – | – | – | –
